# In PMC12040169 (PLOS Biology, 2025):
# Assay: in vitro
# Conditions: human, hela cells, % viability
row,Structure (SMILES),"viability at 28.5 h, 10 µM [%]"
1,Cc1noc(C)c1CN1CCN(CC(CC(=O)Nc2ccccc2)C(=O)O)CC1 (stereo not shown) [CBK286858],83.2
2,Brc1cccc(NN=C2CCCC2)n1 [CBK006748],85.3
3,NC(=O)CCN1CCC(Cc2ccccc2)CC1 [CBK138317],117
4,Cc1cn(CC(=O)N2CCN(c3ncccn3)CC2)c(=O)[nH]c1=O [CBK144513],105
5,CC1CCN(S(=O)(=O)c2cccc(C(=O)N3CCC(C(=O)O)CC3)c2)CC1 [CBK266790],87.4
6,O=C1NCCc2c1[nH]c1ccccc21 [CBK101624],65.5
7,CCNC(=O)C1(Cc2ccccc2-c2cccnc2)CCOCC1 [CBK285218],103
8,Cc1nn(C)c(C)c1CCC(=O)OCc1cc(=O)n2ccccc2n1 [CBK305690],90.8
9,CN(C)Cc1cc(CN(C)C)c(O)c(CCc2ccccc2)n1 [CBK278316C],90.9
10,O=C(c1ncoc1-c1ccc(F)cc1)N1CCOCC1 [CBK282362],87.1
11,CN1CCN(S(=O)(=O)c2ccc3c4c(cccc24)C(=O)N3)CC1 [CBK266647],111
12,O=C(O)c1csc(S(=O)(=O)Nc2ccc(Br)cc2Cl)c1 [CBK297731],101
13,Cc1cc(C)nc(N2CCC(CC(=O)N(C)CC(C)c3ccccc3)CC2)n1 (stereo not shown) [CBK286105],83.5
14,CC(=O)Nc1ccc(S(=O)(=O)Nc2ccc(-c3csc(C)n3)cc2)cc1 [CBK266261],85.7
15,O=C(Cn1c(=O)[nH]c2c(oc3ccccc32)c1=O)Nc1ccccc1 [CBK287818],104
16,CN1CCCc2c1oc1c(OCc3cccnc3)cccc1c2=O [CBK007904],92.1
17,N[C@@H](Cc1c[nH]c2ccccc12)C(=O)N1CC[C@H]2NC(=O)[C@@H](Cc3ccccc3)NC(=O)C3(C/C=C/C[C@@H]2C1)CCOCC3 [CBK292202],115
18,COc1ccc(N(CC(=O)O)S(=O)(=O)c2ccccc2[N+](=O)[O-])c(OC)c1 [CBK262729],92.6
19,CC(C)(C)N1C(=O)c2ccc(C(=O)Nc3ccccc3C(=O)O)cc2C1=O [CBK287004],112
20,O=C(O)c1ccccc1C(=O)OCCN1CCOCC1 [CBK261462],85.4
21,CCCCN(C)CCNC(=O)c1ccc2c(c1)NC(=O)C(N1CCCCC1)S2 (stereo not shown) [CBK071799],85.1
22,O=C(c1ccsc1NS(=O)(=O)Cc1ccccc1[N+](=O)[O-])N1CCOCC1 [CBK042294],89.6

row,Structure (SMILES),"viability at 28.5 h, 10 µM [%]"
1,Cc1cc(C)cc(OCC(=O)Nc2c(C#N)c(C)nn2C)c1 [CBK304791],110
2,CCCCSc1nnc2c(n1)OC(/C=C/c1ccc([N+](=O)[O-])o1)Nc1ccccc1-2 (stereo not shown) [CBK262565],101
3,COc1ccc(C(=O)Nc2cccc(-c3nc4ccccc4[nH]3)c2)c(OC)c1 [CBK072662],95.4
4,COc1ccccc1NC(=O)c1c(NC(=O)c2cc([N+](=O)[O-])ccc2Cl)sc2c1CCCC2 [CBK263827],88.7
5,CCOC(=O)Cn1c(-c2cccs2)cc2cccnc21 [CBK282267],95.2
6,Cc1ccc2c(c1)nc(-c1ccc(O)cc1)n2Cc1ccc(O)cc1 [CBK291226],77.4
7,O=C(CN1C2CCC1CC(O)(c1ccco1)C2)N1CCCC1 (stereo not shown) [CBK284042],88.7
8,CCN1C(=O)CC2(C1=O)C(=O)N(Cc1nc(OC)cc(OC)n1)c1ccccc12 (stereo not shown) [CBK075510],75.8
9,CCn1cc(C2CN(S(=O)(=O)c3ccccc3OC(F)F)CCO2)cn1 (stereo not shown) [CBK304234],106
10,CS(=O)(=O)N1CC2(CCN(Cc3cccnc3)CC2)c2ccccc21 [CBK084006],98.1
11,CC(NS(=O)(=O)c1ccccc1Cl)C(=O)N1CCCCC1C (stereo not shown) [CBK305797],93.9
12,N#CCCc1ccc(Oc2ncc(C(F)(F)F)cc2Cl)cc1 [CBK161635],106
13,COc1ccc(C(C)C)cc1-c1cncc(N(C)CCN(C)C)n1 [CBK065364],105
14,O=C(/C=C/c1cccc([N+](=O)[O-])c1)Nc1ccc(Cl)c(-c2nc3ccccc3o2)c1 [CBK264610],102
15,O=C(Nc1nc(-c2cccs2)cs1)c1ccc(F)cc1 [CBK287327],86.7
16,Cc1ccccc1CSCC(=O)N1CCN(c2ccccc2)CC1 [CBK058577],89
17,COc1cc(-c2cnc3[nH]c(=O)n(Cc4ccco4)c3n2)cc(OC)c1OC [CBK064755],96.3
18,CCOc1ccc(-c2cncc(N3CCC(C(=O)O)CC3)n2)cc1 [CBK065870],97.2
19,COc1cc2c(cc1-c1nccn1CC1CN(C(C)=O)CCO1)CCC2 (stereo not shown) [CBK306850],88.7
20,CN1CCN(c2cc(N3CCN(C)CC3)c([N+](=O)[O-])cc2C2Nc3ccc4ccccc4c3C3=C2C(=O)CC(C)(C)C3)CC1 (stereo not shown) [CBK262381],93.9
21,CC1CCc2nc3ccccc3c(C(=O)N(C)Cc3cnn(C)c3)c2C1 (stereo not shown) [CBK305749],96.9
22,Cc1cc2ccccc2n2c(=O)n(CC(=O)N3CCCCC3)nc12 [CBK283878],85.8

row,Structure (SMILES),"viability at 28.5 h, 10 µM [%]"
1,COc1ccc(C(=O)N2Cc3nc[nH]c3C[C@H]2c2nc(-c3ccc(OC)cc3)no2)cc1 [CBK288966],107
2,CCn1cc(S(=O)(=O)NCC2(c3ccccc3)CCCC2)cn1 [CBK282768],97.2
3,CC1Cc2ccccc2N1C(=O)Cn1c(=O)n(C)c2ncccc21 (stereo not shown) [CBK283793],90.7
4,CC(C)Nc1nccnc1Sc1ccc(N)cc1 [CBK089485],77.1
5,O=C(NCCSCc1c(F)cccc1Cl)Nc1cccc(Cl)c1 [CBK268574],98.6
6,N#CCCn1cc(C(=O)N2CCOCC2)c(-c2ccc(F)cc2)n1 [CBK306189],95.5
7,Nn1cnn2c(SCCSC3CCCCC3)nnc12 [CBK263192],108
8,COc1cc(-c2cn3ccnc3c(N[C@@H]3CCN(Cc4ccccc4)C3)n2)cc(OC)c1OC [CBK037385],113
9,CCOC(=O)c1sc(-c2ccc(C(C)(C)C)cc2)nc1O [CBK078538],92.3
10,CC(C)(C)OC(=O)NCCc1ccc(Nc2cc(-c3ccsc3)ncn2)cc1 [CBK090958],115
11,O=C(Nc1nnc(COc2ccccc2)s1)c1cccc2ccccc12 [CBK300487],97.6
12,CN(Cc1ccncc1)C(=O)c1cccc(S(=O)(=O)NCC2CC2)c1 [CBK305365],95.6
13,CCC(Sc1nnc2c(n1)[nH]c1ccccc12)C(=O)Nc1sc2c(c1C#N)CCCC2 (stereo not shown) [CBK263917],80.3
14,COC(=O)CN1N=C(C(C)(C)C)Cn2c(cc3ccccc32)C1=O [CBK284204],95.5
15,O=S(=O)(Nc1ccc(-c2nnn[nH]2)cc1)c1c(Cl)cc(C(F)(F)F)cc1Cl [CBK155570],95.4
16,CCOc1ccc(C(=O)Nc2ccc(-c3nc4ccccc4s3)cc2C)cc1[N+](=O)[O-] [CBK269005],90.5
17,O=S(=O)(O)c1cc(O)c2c(S(=O)(=O)O)cc(S(=O)(=O)O)cc2c1 [CBK278164N],94.9
18,FC(F)(F)c1cccc(OCCN2CCNCC2)n1 [CBK113291],91.5
19,Nc1ncc(-c2ccc3c(c2)OCO3)nc1-c1ccc(O)cc1 [CBK122505],94.7
20,O=C(Nc1ccc(-n2cc(Cl)cn2)cc1)c1ccncc1 [CBK270249],88.2
21,c1ccc2c(c1)n(CCN1CCOCC1)c1nc(C34CC5CC(CC(C5)C3)C4)cn21 [CBK278154C],105
22,CC(Sc1nnc2[nH]c3ccccc3n12)C(=O)O (stereo not shown) [CBK265822],99.7

row,Structure (SMILES),"viability at 28.5 h, 10 µM [%]"
1,OCCN1CCN(CCCc2ccccc2)CC1 [CBK261872],86
2,Cc1ccc(Cc2c(C)nc(N3CCN(Cc4ccccc4)CC3)[nH]c2=O)cc1 [CBK270170],115
3,O=C(N/N=C/C=C/c1ccc([N+](=O)[O-])cc1)C(O)c1ccccc1 (stereo not shown) [CBK261373],81.5
4,COc1ccccc1NC(=O)CC1S/C(=N\N=C2/CCCc3ccccc32)N=C1O (stereo not shown) [CBK263748],102
5,CC(C)(C)C1CCC(OC(=O)CCC(=O)Nc2nccs2)CC1 (stereo not shown) [CBK260890],96.9
6,Cc1[nH]c(=O)[nH]c1C(=O)CCCCC(=O)O [CBK263197],94
7,CC(=O)Oc1cc(Cl)ccc1C(=O)Nc1nnc(C(F)(F)F)s1 [CBK017569],84
8,Cc1ccccc1-n1ncc2c1NC(=O)N1CCCN=C21 [CBK284409],78.7
9,CC(CC(=O)C1C(C)C=CCC1(C)C)NNC(=O)c1ccccc1O (stereo not shown) [CBK262980],91.6
10,Cc1cc(C)n(CC(C)NC(=O)C(c2ccccc2)N2CCCC2)n1 (stereo not shown) [CBK281645],82.1
11,Cc1ccc(Nc2cc(-c3cccc(N)c3)ncn2)cc1NS(C)(=O)=O [CBK091145],99.1
12,COc1cccc(C2(O)CCC3CN(C(C)=O)CC32)c1 (stereo not shown) [CBK283222],95.8
13,COCC(C)NC(=O)c1cc(-c2cccs2)nc2onc(C)c12 (stereo not shown) [CBK306473],104
14,CC(C)[C@H](CO)Nc1nc(-c2ccc(N3CCOCC3)cc2)cn2ccnc12 [CBK066151],108
15,COc1ccc(S(=O)(=O)NCCN2CCOCC2)c(C)c1C [CBK266479],99.4
16,O=C(Nc1ccccc1)c1cccc(S(=O)(=O)NCc2ccncc2)c1 [CBK269980],102
17,Cc1ccc(NC(=O)C2C3C=CC(O3)C2C(=O)O)cc1 (stereo not shown) [CBK263670],91.4
18,O=C(O)CSc1nccn1Cc1ccccc1 [CBK262215],103
19,COc1ccc(-c2ccc(=O)n(CC(=O)NCc3ccc(C(=O)O)cc3)n2)c(F)c1 [CBK286776],91.5
20,O=C(c1cc(-c2ccc(Cl)cc2)[nH]n1)N1CCN(c2ncccn2)CC1 [CBK116551],93
21,COc1cccc(-c2cnc3[nH]c(=O)n(Cc4ccc(Cl)cc4)c3n2)c1 [CBK064596],111
22,CCc1nc2ccc(C(=O)NCCN3CCOCC3)cn2c1N(C)Cc1cc2ccccc2s1 [CBK146561],101
